Where a name gives a salt, the structure may show the parent alone.
SMILES	melting point
Cc1nc(NC(C2CC2)C2CC2)c2c(C)[nH]c(-c3ccc(Cl)cc3Cl)c2n1 (as salt: HCl) [Example 6]	218 to 222 °C
CCC(CC)Nc1nc(C)nc2c1C(C)(O)N=C2c1ccc(Cl)cc1Cl (centres unmarked) [Example 7, 7-(2,4-Dichloro-phenyl)-4-(1-ethyl-propylamino)-2,5-dimethyl-5H-pyrrolo[3,4-d]pyrimidin-5-ol]	184 to 185 °C
